System: 945468-187-T-J2-PDC spheroids viability
Assay: Anticancer human tumor 945468-187-T-J2-PDC patient-derived rectal carcinoma cell line growth inhibition [PI3K]
Details: spheroids with HUVEC and MSC; for IC50: curve of first compound; for viability, T/C: stronger effect = lower value
How it was run: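 Multi-cell spheroids combine tumor cells with HUVEC and human MSCs, treated with targeted agents alone or with inavolisib, alpelisib, duvelisib or copanlisib. Concentrations fall in half-log steps from at or near clinical Cmax, or from 10 microM where Cmax is unknown; viability read-out.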

[1] = second compound 0.0316 µM, first compound 0.0316 µM
[2] = second compound 0.0316 µM, first compound 0.1 µM
[3] = second compound 0.1 µM, first compound 0.0316 µM
[4] = second compound 0.1 µM, first compound 0.1 µM
[5] = second compound 0.316 µM, first compound 0.0316 µM
[6] = second compound 0.316 µM, first compound 0.1 µM
[7] = second compound 1 µM, first compound 0.0316 µM
[8] = second compound 1 µM, first compound 0.1 µM
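Also: spheroids exposed to compounds for seven days before reading.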

CC1(C)CCC(Nc2ncc(C(F)(F)F)c(-c3c[nH]c4c(P(C)(C)=O)c(C#N)ccc34)n2)CN1 (centres undefined) + Cc1nc(NC(=O)N2CCCC2C(N)=O)sc1-c1ccnc(C(C)(C)C(F)(F)F)c1
IC50 (second compound 0.0316 µM): 2650 nM | IC50 (second compound 0.1 µM): 2140 nM | IC50 (second compound 0.316 µM): > 10000 nM | IC50 (second compound 1 µM): > 10000 nM | IC50 (second compound 3.16 µM): 1980 nM | IC50 (second compound 10 µM): 2320 nM | viability, T/C [1]: 95.8% | viability, T/C [2]: 104% | viability, T/C (second compound 0.0316 µM, first compound 0.316 µM): 78.4% | viability, T/C (second compound 0.0316 µM, first compound 1 µM): 62.9% | viability, T/C (second compound 0.0316 µM, first compound 3.16 µM): 47% | viability, T/C (second compound 0.0316 µM, first compound 10 µM): 45.3% | viability, T/C [3]: 87% | viability, T/C [4]: 85.4% | viability, T/C (second compound 0.1 µM, first compound 0.316 µM): 93.2% | viability, T/C (second compound 0.1 µM, first compound 1 µM): 55.2% | viability, T/C (second compound 0.1 µM, first compound 3.16 µM): 53.1% | viability, T/C (second compound 0.1 µM, first compound 10 µM): 41.6% | viability, T/C [5]: 87.8% | viability, T/C [6]: 130% | viability, T/C (second compound 0.316 µM, first compound 0.316 µM): 80.3% | viability, T/C (second compound 0.316 µM, first compound 1 µM): 59.2% | viability, T/C (second compound 0.316 µM, first compound 3.16 µM): 48.1% | viability, T/C (second compound 0.316 µM, first compound 10 µM): 45.5% | viability, T/C [7]: 89.8% | viability, T/C [8]: 99.3% | viability, T/C (second compound 1 µM, first compound 0.316 µM): 91.4% | viability, T/C (second compound 1 µM, first compound 1 µM): 53.8% | viability, T/C (second compound 1 µM, first compound 3.16 µM): 48.5% | viability, T/C (second compound 1 µM, first compound 10 µM): 55.3% | viability, T/C (second compound 3.16 µM, first compound 0.0316 µM): 99.8% | viability, T/C (second compound 3.16 µM, first compound 0.1 µM): 106% | viability, T/C (second compound 3.16 µM, first compound 0.316 µM): 73.7% | viability, T/C (second compound 3.16 µM, first compound 1 µM): 57% | viability, T/C (second compound 3.16 µM, first compound 3.16 µM): 50.1% | viability, T/C (second compound 3.16 µM, first compound 10 µM): 43.1% | viability, T/C (second compound 10 µM, first compound 0.0316 µM): 81.8% | viability, T/C (second compound 10 µM, first compound 0.1 µM): 77.5% | viability, T/C (second compound 10 µM, first compound 0.316 µM): 48.9% | viability, T/C (second compound 10 µM, first compound 1 µM): 53.7% | viability, T/C (second compound 10 µM, first compound 3.16 µM): 60.2% | viability, T/C (second compound 10 µM, first compound 10 µM): 39.4%

CC(=O)c1c(C)c2cnc(Nc3ccc(N4CCNCC4)cn3)nc2n(C2CCCC2)c1=O + COc1c(OCCCN2CCOCC2)ccc2c3n(c(=NC(=O)c4cnc(N)nc4)nc12)CCN3
IC50 (second compound 0.00316 µM): > 100 nM | IC50 (second compound 0.01 µM): > 100 nM | IC50 (second compound 0.0316 µM): > 100 nM | IC50 (second compound 0.1 µM): > 100 nM | IC50 (second compound 0.316 µM): < 0.316 nM | IC50 (second compound 1 µM): < 0.316 nM | viability, T/C (second compound 0.00316 µM, first compound 0.000316 µM): 101% | viability, T/C (second compound 0.00316 µM, first compound 0.001 µM): 96.6% | viability, T/C (second compound 0.00316 µM, first compound 0.00316 µM): 110% | viability, T/C (second compound 0.00316 µM, first compound 0.01 µM): 103% | viability, T/C (second compound 0.00316 µM, first compound 0.0316 µM): 96.3% | viability, T/C (second compound 0.00316 µM, first compound 0.1 µM): 112% | viability, T/C (second compound 0.01 µM, first compound 0.000316 µM): 135% | viability, T/C (second compound 0.01 µM, first compound 0.001 µM): 135% | viability, T/C (second compound 0.01 µM, first compound 0.00316 µM): 120% | viability, T/C (second compound 0.01 µM, first compound 0.01 µM): 108% | viability, T/C (second compound 0.01 µM, first compound 0.0316 µM): 110% | viability, T/C (second compound 0.01 µM, first compound 0.1 µM): 130% | viability, T/C (second compound 0.0316 µM, first compound 0.000316 µM): 115% | viability, T/C (second compound 0.0316 µM, first compound 0.001 µM): 95.4% | viability, T/C (second compound 0.0316 µM, first compound 0.00316 µM): 101% | viability, T/C (second compound 0.0316 µM, first compound 0.01 µM): 105% | viability, T/C [1]: 118% | viability, T/C [2]: 113% | viability, T/C (second compound 0.1 µM, first compound 0.000316 µM): 102% | viability, T/C (second compound 0.1 µM, first compound 0.001 µM): 101% | viability, T/C (second compound 0.1 µM, first compound 0.00316 µM): 115% | viability, T/C (second compound 0.1 µM, first compound 0.01 µM): 80% | viability, T/C [3]: 85.5% | viability, T/C [4]: 89.9% | viability, T/C (second compound 0.316 µM, first compound 0.000316 µM): 38.6% | viability, T/C (second compound 0.316 µM, first compound 0.001 µM): 36.7% | viability, T/C (second compound 0.316 µM, first compound 0.00316 µM): 45.7% | viability, T/C (second compound 0.316 µM, first compound 0.01 µM): 40.9% | viability, T/C [5]: 36.2% | viability, T/C [6]: 37.4% | viability, T/C (second compound 1 µM, first compound 0.000316 µM): 24.2% | viability, T/C (second compound 1 µM, first compound 0.001 µM): 21.4% | viability, T/C (second compound 1 µM, first compound 0.00316 µM): 28.7% | viability, T/C (second compound 1 µM, first compound 0.01 µM): 21.6% | viability, T/C [7]: 22.8% | viability, T/C [8]: 18.5%
